Activity calls are given as the source filed them. The rule behind the calls is not given here.
What was measured:
A549 = experiment: Cytotoxicity against human A549 cells after 48 hrs by MTT assay; format: functional, cell-based; settings: A549, 48 h
HeLa [1] = experiment: Cytotoxicity against human HeLa cells after 48 hrs by MTT assay; format: functional, cell-based
HepG2 = experiment: Cytotoxicity against human HepG2 cells after 48 hrs by MTT assay; format: functional, cell-based; settings: HepG2, 48 h
HCT-8 = experiment: Cytotoxicity against human HCT8 cells after 48 hrs by MTT assay; format: functional, cell-based; settings: HCT-8, 48 h
DNA [2] = experiment: Binding affinity to calf thymus DNA assessed as reduction in intensity of positive band at 5 to 40 ug/ml after 24 hrs by circular dichroism analysis; format: nucleic-acid assay; settings: Bos taurus
HeLa [3] = experiment: Cell cycle arrest in human HeLa cells assessed as accumulation at S phase at 0.5 uM after 24 hrs using propidium iodide staining by FACS analysis (reference value: 27.1%); format: functional
DNA [4] = experiment: Binding affinity to calf thymus DNA at 0.5 mM after 5 mins by fluorescence analysis; format: nucleic-acid assay; settings: Bos taurus
HeLa [5] = experiment: Induction of morphological changes in human HeLa cells after 48 hrs by immunofluorescence analysis; format: functional, cell-based
HeLa [6] = experiment: Induction of microtubule depolymerization in human HeLa cells assessed as short and dense microtubule networks at 0.5 uM using DAPI staining by immunofluorescence analysis; format: cell-based; settings: TDE = time-dependent effect
HeLa [7] = experiment: Cell cycle arrest in human HeLa cells assessed as accumulation at sub-G1 phase at 1 uM after 24 hrs using propidium iodide staining by FACS analysis (reference value: 0%); format: functional
HeLa [8] = experiment: Induction of microtubule depolymerization in human HeLa cells assessed as short and dense microtubule networks at 0.5 uM after 48 hrs using DAPI staining by immunofluorescence analysis; format: cell-based
HeLa [9] = experiment: Cell cycle arrest in human HeLa cells assessed as accumulation at G1 phase at 0.5 uM after 24 hrs using propidium iodide staining by FACS analysis (reference value: 48.5%); format: functional
HeLa [10] = experiment: Cell cycle arrest in human HeLa cells assessed as accumulation at G2/M phase after 24 hrs using propidium iodide staining by FACS analysis; format: functional, cell-based
HeLa [11] = experiment: Cell cycle arrest in human HeLa cells assessed as accumulation at S phase at 1 uM after 24 hrs using propidium iodide staining by FACS analysis (reference value: 27.1%); format: functional
HeLa [12] = experiment: Induction of apoptosis in human HeLa cells assessed as cell shrinkage, nuclear fragmentation and condensation dispersed throughout cytoplasm at 0.5 uM by immunofluorescence analysis; format: functional, cell-based; settings: TDE = time-dependent effect
HeLa [13] = experiment: Cell cycle arrest in human HeLa cells assessed as accumulation at sub-G1 phase at 0.5 uM after 24 hrs using propidium iodide staining by FACS analysis (reference value: 0%); format: functional
HeLa [14] = experiment: Cell cycle arrest in human HeLa cells assessed as accumulation at G2/M phase at 0.5 uM after 24 hrs using propidium iodide staining by FACS analysis (reference value: 24.4%); format: functional
HeLa [15] = experiment: Induction of apoptosis in human HeLa cells assessed as early apoptotic cells at 0.25 uM after 24 hrs using annexin V-FITC/PI and Hoechst 33258 staining by FACS analysis (reference value: 2.34%); format: functional
HeLa [16] = experiment: Increase of CDC2 protein level in human HeLa cells Western blotting analysis; format: functional, cell-based
HeLa [17] = experiment: Induction of apoptosis in human HeLa cells assessed as late apoptotic cells at 0.5 uM after 24 hrs using annexin V-FITC/PI and Hoechst 33258 staining by FACS analysis (reference value: 2.39%); format: functional
HeLa [18] = experiment: Increase of p53 protein level in human HeLa cells Western blotting analysis; format: functional, cell-based
HeLa [19] = experiment: Cell cycle arrest in human HeLa cells assessed as accumulation at G1 phase at 1 uM after 24 hrs using propidium iodide staining by FACS analysis (reference value: 48.5%); format: functional
HeLa [20] = experiment: Increase of caspase-3 protein level in human HeLa cells Western blotting analysis; format: functional, cell-based
HeLa [21] = experiment: Induction of morphological changes in human HeLa cells by immunofluorescence analysis; format: functional, cell-based; settings: TDE = time-dependent effect
HeLa [22] = experiment: Cell cycle arrest in human HeLa cells assessed as accumulation at G2/M phase at 1 uM after 24 hrs using propidium iodide staining by FACS analysis (reference value: 24.4%); format: functional
HeLa [23] = experiment: Induction of apoptosis in human HeLa cells assessed as late apoptotic cells at 0.25 uM after 24 hrs using annexin V-FITC/PI and Hoechst 33258 staining by FACS analysis (reference value: 2.39%); format: functional
HeLa [24] = experiment: Induction of apoptosis in human HeLa cells assessed as cell shrinkage, nuclear fragmentation and condensation dispersed throughout cytoplasm at 0.5 uM after 48 hrs by immunofluorescence analysis; format: functional, cell-based
HeLa [25] = experiment: Increase of cyclin-B1 protein level in human HeLa cells Western blotting analysis; format: functional, cell-based
HeLa [26] = experiment: Induction of apoptosis in human HeLa cells assessed as early apoptotic cells at 0.5 uM after 24 hrs using annexin V-FITC/PI and Hoechst 33258 staining by FACS analysis (reference value: 2.34%); format: functional

`COc1cc([C@@H]2c3cc4c(cc3[C@@H](NCCCNc3ccc([N+](=O)[O-])cc3)[C@H]3COC(=O)[C@H]23)OCO4)cc(OC)c1O` was tested, and the IC50 (A549) was 43.2 µM, the IC50 (HeLa [1]) was 10.5 µM and the IC50 (HepG2) was 22.4 µM. The IC50 (HCT-8) was 19.7 µM.

`COc1cc([C@@H]2c3cc4c(cc3[C@@H](NCCNc3ccc([N+](=O)[O-])cc3)[C@H]3COC(=O)[C@H]23)OCO4)cc(OC)c1O` gave an IC50 (A549) of 25.8 µM, an IC50 (HeLa [1]) of 14.8 µM and an IC50 (HepG2) of 32.3 µM. It also gave an IC50 (HCT-8) of 14.8 µM.

With `COc1cc([C@@H]2c3cc4c(cc3[C@@H](O[C@@H]3O[C@@H]5CO[C@@H](C)O[C@H]5[C@H](O)[C@H]3O)[C@H]3COC(=O)[C@H]23)OCO4)cc(OC)c1O` [ETOPOSIDE] the IC50 (HeLa [1]) was 4.73 µM, the IC50 (HepG2) was 11.5 µM and the IC50 (HCT-8) was 6.54 µM.

`COc1cc([C@@H]2c3cc4c(cc3[C@@H](N3CCN(C5CCCC5)CC3)[C@H]3COC(=O)[C@H]23)OCO4)cc(OC)c1O` showed an IC50 (A549) of 14.5 µM, an IC50 (HeLa [1]) of 11.6 µM and an IC50 (HepG2) of 8.42 µM. It also gave an IC50 (HCT-8) of 10.2 µM.

Work on `COc1cc([C@@H]2c3cc4c(cc3[C@@H](Nc3ccc(S(=O)(=O)N5CCN(c6ccc(F)cc6)CC5)cc3)[C@H]3COC(=O)[C@H]23)OCO4)cc(OC)c1O` yielded an IC50 (A549) of 57.3 µM, an IC50 (HeLa [1]) of 21.9 µM and an IC50 (HepG2) of 54.4 µM. It also gave an IC50 (HCT-8) of 30.4 µM.

For `COc1cc([C@@H]2c3cc4c(cc3[C@@H](Nc3ccc(S(=O)(=O)NC5CCCC5)cc3)[C@H]3COC(=O)[C@H]23)OCO4)cc(OC)c1O`, the IC50 (A549) was 52.4 µM, the IC50 (HeLa [1]) was 35.2 µM and the IC50 (HepG2) was 47.6 µM. For the same molecule, the IC50 (HCT-8) was 38.7 µM.

With `CCN1CCN([C@@H]2c3cc4c(cc3[C@@H](c3cc(OC)c(O)c(OC)c3)[C@H]3C(=O)OC[C@@H]32)OCO4)CC1` the IC50 (A549) was 28.8 µM, the IC50 (HeLa [1]) was 3.81 µM and the IC50 (HepG2) was 5.41 µM. It also gave an IC50 (HCT-8) of 19.8 µM.

For `COc1cc([C@@H]2c3cc4c(cc3[C@@H](N3CCN(c5ccc([N+](=O)[O-])cc5)CC3)[C@H]3COC(=O)[C@H]23)OCO4)cc(OC)c1O`, the Activity (DNA [2]) was “Active”, the Activity (HeLa [3]) was 58.7% and the Activity (DNA [4]) was “Active”. The Activity (HeLa [5]) was “Active”, the Activity (HeLa [6]) was “tde” and the Activity (HeLa [7]) was 4.9%. For the same molecule, the Activity (HeLa [8]) was “Active”, the IC50 (A549) was 0.16 µM and the Activity (HeLa [9]) was 5.9%. For the same molecule, the IC50 (HeLa [1]) was 0.07 µM, the Activity (HeLa [10]) was “Dose-dependent effect” and the Activity (HeLa [11]) was 28.6%. For the same molecule, the Activity (HeLa [12]) was “tde”, the Activity (HeLa [13]) was 1% and the Activity (HeLa [14]) was 35.4%. The Activity (HeLa [15]) was 3.99%, the Activity (HeLa [16]) was “Dose-dependent effect” and the IC50 (HepG2) was 1.43 µM. For the same molecule, the Activity (HeLa [17]) was 4.76%, the Activity (HeLa [18]) was “Dose-dependent effect” and the Activity (HeLa [19]) was 0.1%. The Activity (HeLa [20]) was “Dose-dependent effect”, the Activity (HeLa [21]) was “tde” and the Activity (HeLa [22]) was 71.4%. The Activity (HeLa [23]) was 3.54%, the IC50 (HCT-8) was 2.12 µM and the Activity (HeLa [24]) was “Active”. For the same molecule, the Activity (HeLa [25]) was “Dose-dependent effect” and the Activity (HeLa [26]) was 4.88%.

Molecule `COc1cc([C@@H]2c3cc4c(cc3[C@@H](N3CCN(c5ccc(F)cc5)CC3)[C@H]3COC(=O)[C@H]23)OCO4)cc(OC)c1O` has an IC50 (A549) of 27.3 µM, an IC50 (HeLa [1]) of 13.6 µM and an IC50 (HepG2) of 20.6 µM. For the same molecule, the IC50 (HCT-8) was 14.3 µM.

Work on `COc1cc([C@@H]2c3cc4c(cc3[C@@H](Nc3ccc(S(=O)(=O)N5CCN(c6ccc([N+](=O)[O-])cc6)CC5)cc3)[C@H]3COC(=O)[C@H]23)OCO4)cc(OC)c1O` yielded an IC50 (A549) of 42.3 µM, an IC50 (HeLa [1]) of 27.8 µM and an IC50 (HepG2) of 38.6 µM. The IC50 (HCT-8) was 32.5 µM.

Molecule `COc1cc([C@@H]2c3cc4c(cc3[C@@H](N3CCN(C)CC3)[C@H]3COC(=O)[C@H]23)OCO4)cc(OC)c1O` has an IC50 (A549) of 26.4 µM, an IC50 (HeLa [1]) of 3.4 µM and an IC50 (HepG2) of 2.72 µM. It also gave an IC50 (HCT-8) of 12.4 µM.
